According to patent US20240360177A1, “PEPTIDES WITH ANTIMICROBIAL ACTIVITIES” (priority 2021, published 2024):
Converted amounts (≈) assume the structure as drawn. Where two headings read alike, the source gives them in different places. Non-standard residues stand in square brackets, D forms with d. Residues, ends and D or L forms follow the SMILES beside them. hArg = N=C(N)NCCCC[C@H](N)C(=O)O; Ahp = NCCCCCCC(=O)O; Ava = NCCCCC(=O)O

Columns and labels:
C. gattii [1] = system: C. gattii
[2] = system: Trichophyton rubrum ATCC MYA-4438; settings: 4-6 days
C. tropicalis [3] = system: C. tropicalis
C. dubliniensis [4] = settings: ATCC MYA-578; 24 hrs
C. krusei [5] = system: C. krusei
C. neoformans [6] = settings: ATCC 90112; 72 hrs
Scedosporium spp. = settings: N = 2 strains; 72 hrs
C. glabrata [7] = system: C. glabrata
C. parapsilosis [8] = system: C. parapsilosis
[9] = system: Epidermophyton floccosum ATCC 52066; settings: 4-6 days
human red blood cells = type: cell-based; settings: PBS, 37° C., 1 hr
Description: Hemolysis is a liability for many other cationic peptides which prevented their utility to treat systemic infections. The hemolytic potential of the peptides was tested using red blood cells collected from fresh human blood after centrifugation at room temperature and washed in phosphate buffered saline (pH 7.4) three times and then incubated in phosphate buffered saline (PBS) at 37° C. for 1 hr with the peptides at concentrations of 3-300 μg/mL. Triton-X100 was used as the positive control while the vehicle (PBS) was used as the negative control. Amphotericin B and melittin, both known to be hemolytic were used as reference compounds. Following incubation, the mixture was centrifuged at room temperature, and the supernatant was separated and analyzed for light absorbance at a single wavelength of 410 nm. The background absorbance reading from the negative control was subtracted from all samples. The Triton-X-100 sample was used to represent 100% lysis. All test compound and positive control samples were normalized to this value to determine the percent lysis caused by the test compounds and the positive controls at each concentration.

C. albicans [10] = system: C. albicans
HepG2 cells [11] = system: HepG2 cells
C. auris [12] = system: C. auris
[13] = system: Microsporum gypseum ATCC 14683; settings: 4-6 days
C. gattii [14] = assay: microbe, parasite or virus in culture; settings: Cryptococcus gattii, 72 h, read-out: MIC C. gattii
C. parapsilosis [15] = assay: microbe, parasite or virus in culture; settings: Lodderomyces parapsilosis, ATCC22019, 24 h, read-out: MIC C. parapsilosis
C. auris [16] = assay: microbe, parasite or virus in culture; settings: Candidozyma auris, 24 h, read-out: MIC C. auris
C. glabrata [17] = assay: microbe, parasite or virus in culture; settings: Nakaseomyces glabratus, ATCC90030, 24 h, read-out: MIC C. glabrata
C. neoformans [18] = assay: microbe, parasite or virus in culture; settings: Cryptococcus neoformans, ATCC90112, 72 h, read-out: MIC C. neoformans
C. albicans [19] = assay: microbe, parasite or virus in culture; settings: Candida albicans, ATCC90028, 24 h, read-out: MIC C. albicans
[20] = system: Microsporum gypseum ATCC 14683; assay: microbe, parasite or virus in culture; settings: Nannizzia gypsea, ATCC14683, read-out: MIC Microsporum gypseum
C. krusei [21] = assay: microbe, parasite or virus in culture; settings: Pichia kudriavzevii, 24 h, read-out: MIC C. krusei
[22] = system: Trichophyton rubrum ATCC MYA-4438; assay: microbe, parasite or virus in culture; settings: read-out: MIC Trichophyton rubrum
C. tropicalis [23] = assay: microbe, parasite or virus in culture; settings: Candida tropicalis, ATCC90874, 24 h, read-out: MIC C. tropicalis
[24] = system: Epidermophyton floccosum ATCC 52066; assay: microbe, parasite or virus in culture; settings: ATCC52066, read-out: MIC Epidermophyton floccosum
C. dubliniensis [25] = assay: microbe, parasite or virus in culture; settings: Candida dubliniensis, 24 h, read-out: MIC C. dubliniensis
[26] = system: Shigella sonnei MMX 10772; assay: Antibacterial broth microdilution MIC, Shigella sonnei; type: cell-based; settings: CAMHB
[27] = system: Mycobacterium smegmatis ATCC 700084; type: cell-based; settings: ATCC 700084, 48 h
[28] = system: Escherichia coli ATCC 25922; type: cell-based
[29] = system: Enterococcus faecium ATCC 700221; settings: CAMHB
[30] = system: Klebsiella pneumoniae ATCC 13883; type: cell-based
[31] = system: Salmonella senftenberg CDC 127; type: cell-based
[32] = system: Staphylococcus aureus ATCC 29213; type: cell-based
[33] = system: Pseudomonas aeruginosa ATCC 27853; type: cell-based
[34] = Cytotoxicity in HepG2 cells, intracellular ATP assay; settings: human, EC50 cytotoxicity in HepG2, intracellular ATP assay, Table 16; 18-22 hrs exposure without FBS
Candida spp. = settings: 15 strains (Table 10)
HepG2 cells [35] = assay: Cytotoxicity in HepG2 cells, intracellular ATP assay; settings: Homo sapiens, HepG2, read-out: EC50 in HepG2 ATP assay, internal control, range across studies

Structure (SMILES): C[C@@H]1[C@H](O)[C@@H](C)/C=C/C=C/C=C/C=C/C=C/C=C/C=C/[C@H](O[C@@H]2O[C@H](C)[C@@H](O)[C@H](N)[C@@H]2O)C[C@@H]2O[C@](O)(C[C@@H](O)C[C@@H](O)[C@H](O)CC[C@@H](O)C[C@@H](O)CC(=O)O[C@H]1C)C[C@H](O)[C@H]2C(=O)O [AMB, amphotericin B, reference compound]
- MIC C. gattii (C. gattii [1]; ATCC MYA-4093, 72 hrs): 0.5 µg/mL (≈ 0.541 µM)
- MIC Trichophyton rubrum [2]: ≤0.06 µg/mL
- MIC C. tropicalis (C. tropicalis [3]; ATCC 90874, 24 hrs): 0.5 µg/mL (≈ 0.541 µM)
- MIC C. dubliniensis (C. dubliniensis [4]): 0.25 µg/mL (≈ 0.271 µM)
- MIC C. krusei (C. krusei [5]; MMX 7135, 24 hrs): 0.5 µg/mL (≈ 0.541 µM)
- MIC Range Fusarium spp. (Fusarium spp.; N = 3 strains, 48 hrs): 1 µg/mL (≈ 1.08 µM)
- MIC C. neoformans (C. neoformans [6]): 0.25 µg/mL (≈ 0.271 µM)
- MIC Range Scedosporium spp. (Scedosporium spp.): 1 to 2 µg/mL
- MIC C. glabrata (C. glabrata [7]; ATCC 90030, 24 hrs): 0.5 µg/mL (≈ 0.541 µM)
- MIC C. parapsilosis (C. parapsilosis [8]; ATCC 22019, 24 hrs): 0.25 µg/mL (≈ 0.271 µM)
- MIC Epidermophyton floccosum [9]: 0.12 µg/mL (≈ 0.13 µM)
- EC50 hemolysis (50% lysis) (human red blood cells): 6.95 µg/mL (≈ 7.52 µM)
- MIC C. albicans (C. albicans [10]; ATCC 90028 or 90029, 24 hrs): 0.5 µg/mL (≈ 0.541 µM)
- EC50 cytotoxicity in HepG2, positive controls across studies (HepG2 cells [11]): 5.79 to 14.13 µg/mL
- MIC C. auris (C. auris [12]; CDC 386, 24 hrs): 1 µg/mL (≈ 1.08 µM)
- MIC Microsporum gypseum [13]: 0.5 µg/mL (≈ 0.541 µM)

Structure (SMILES): OC(Cn1cncn1)(Cn1cncn1)c1ccc(F)cc1F [FLC, fluconazole]
- MIC (C. gattii [14]): 8 µg/mL (≈ 26.1 µM)
- MIC (C. parapsilosis [15]): 2 µg/mL (≈ 6.53 µM)
- MIC (C. auris [16]): > 32 µg/mL
- MIC (C. glabrata [17]): 4 µg/mL (≈ 13.1 µM)
- MIC (C. neoformans [18]): 4 µg/mL (≈ 13.1 µM)
- MIC (C. albicans [19]): 0.25 µg/mL (≈ 0.816 µM)
- MIC [20]: 2 µg/mL (≈ 6.53 µM)
- MIC (C. krusei [21]): 8 µg/mL (≈ 26.1 µM)
- MIC [22]: 0.5 µg/mL (≈ 1.63 µM)
- MIC (C. tropicalis [23]): 0.25 µg/mL (≈ 0.816 µM)
- MIC [24]: 1 µg/mL (≈ 3.27 µM)
- MIC Range Fusarium spp. (Fusarium spp.; N = 3 strains, 48 hrs): >32 µg/mL
- MIC (C. dubliniensis [25]): 0.5 µg/mL (≈ 1.63 µM)

Structure (SMILES): N=C(N)NCCC[C@H](NC(=O)[C@@H](CCCNC(=N)N)NC(=O)[C@H](CCCNC(=N)N)NC(=O)[C@@H](CCCNC(=N)N)NC(=O)CCCCNC(=O)[C@H](CCCNC(=N)N)NC(=O)[C@@H](CCCNC(=N)N)NC(=O)[C@H](CCCNC(=N)N)NC(=O)[C@@H](CCCNC(=N)N)NC(=O)CCCCNC(=O)[C@@H](CCCNC(=N)N)NC(=O)[C@H](CCCNC(=N)N)NC(=O)[C@@H](CCCNC(=N)N)NC(=O)CCCCCCNC(=O)[C@@H](CCCNC(=N)N)NC(=O)[C@H](CCCNC(=N)N)NC(=O)[C@@H](CCCNC(=N)N)NC(=O)[C@@H](N)CS)C(=O)O [SEQ ID NO: 6, Cys-rRr-(Ahp)-rRr-(Ava)-rRrR-(Ava)-rRrR] (H-C[dR]R[dR][Ahp][dR]R[dR][Ava][dR]R[dR]R[Ava][dR]R[dR]R-OH)
- MIC Shigella sonnei [26]: 16 µg/mL (≈ 6.08 µM)
- MIC Mycobacterium smegmatis [27]: 1 µg/mL (≈ 0.38 µM)
- MIC Escherichia coli [28]: 16 µg/mL (≈ 6.08 µM)
- MIC C. gattii (C. gattii [1]; 72 h): 1 µg/mL (≈ 0.38 µM)
- MIC Enterococcus faecium [29]: 16 µg/mL (≈ 6.08 µM)
- MIC C. tropicalis (C. tropicalis [3]; 24 h): 1 µg/mL (≈ 0.38 µM)
- MIC Klebsiella pneumoniae [30]: 16 µg/mL (≈ 6.08 µM)
- MIC Salmonella senftenberg [31]: 16 µg/mL (≈ 6.08 µM)
- MIC C. krusei (C. krusei [5]; 24 h): 8 µg/mL (≈ 3.04 µM)
- MIC Range Fusarium spp. (Fusarium spp.; 48 h): 0.25 to 0.5 µg/mL
- MIC C. glabrata (C. glabrata [7]; 24 h): 0.5 µg/mL (≈ 0.19 µM)
- MIC C. parapsilosis (C. parapsilosis [8]; 24 h): 2 µg/mL (≈ 0.76 µM)
- MIC Staphylococcus aureus [32]: 8 µg/mL (≈ 3.04 µM)
- MIC C. albicans (C. albicans [10]; 24 h): 8 µg/mL (≈ 3.04 µM)
- MIC Pseudomonas aeruginosa [33]: 16 µg/mL (≈ 6.08 µM)
- MIC C. auris (C. auris [12]; 24 h): 4 µg/mL (≈ 1.52 µM)

Structure (SMILES): N=C(N)NCCCC[C@H](NC(=O)[C@@H](CCCNC(=N)N)NC(=O)[C@H](CCCCNC(=N)N)NC(=O)[C@@H](CCCNC(=N)N)NC(=O)[C@@H]1CCCN1C(=O)[C@H](CCCCNC(=N)N)NC(=O)[C@@H](CCCNC(=N)N)NC(=O)[C@H](CCCCNC(=N)N)NC(=O)[C@@H](CCCNC(=N)N)NC(=O)[C@@H]1CCCN1C(=O)[C@@H](CCCNC(=N)N)NC(=O)[C@H](CCCCNC(=N)N)NC(=O)[C@@H](CCCNC(=N)N)NC(=O)[C@@H]1CCCN1C(=O)[C@@H](CCCNC(=N)N)NC(=O)[C@H](CCCCNC(=N)N)NC(=O)[C@H](N)CCCNC(=N)N)C(N)=O [SEQ ID NO: 88, r(Har)r-P-r(Har)r-P-r(Har)r(Har)-P-r(Har)r(Har)-NH2] (H-[dR][hArg][dR]P[dR][hArg][dR]P[dR][hArg][dR][hArg]P[dR][hArg][dR][hArg]-NH2)
- MIC C. gattii (C. gattii [1]; ATCC MYA-4093, 72 hrs): 0.5 µg/mL (≈ 0.194 µM)
- MIC C. tropicalis (C. tropicalis [3]; ATCC 90874, 24 hrs): 0.5 µg/mL (≈ 0.194 µM)
- MIC C. dubliniensis (C. dubliniensis [4]): 0.5 µg/mL (≈ 0.194 µM)
- MIC C. krusei (C. krusei [5]; MMX 7135, 24 hrs): 0.5 µg/mL (≈ 0.194 µM)
- MIC C. neoformans (C. neoformans [6]): 0.5 µg/mL (≈ 0.194 µM)
- EC50 [34]: > 300 µg/mL
- MIC C. glabrata (C. glabrata [7]; ATCC 90030, 24 hrs): 0.5 µg/mL (≈ 0.194 µM)
- MIC C. parapsilosis (C. parapsilosis [8]; ATCC 22019, 24 hrs): 0.25 µg/mL (≈ 0.0969 µM)
- MIC50 Candida species (Candida spp.): 0.5 µg/mL (≈ 0.194 µM)
- MIC90 Candida species (Candida spp.): 1 µg/mL (≈ 0.388 µM)
- MIC C. albicans (C. albicans [10]; ATCC 90028 or 90029, 24 hrs): 0.5 µg/mL (≈ 0.194 µM)
- MIC C. auris (C. auris [12]; CDC 386, 24 hrs): 0.5 µg/mL (≈ 0.194 µM)

Structure (SMILES): C=C(C)[C@H]1Cc2c(ccc3c2O[C@@H]2COc4cc(OC)c(OC)cc4[C@@H]2C3=O)O1 [rotenone, reference compound]
- EC50 (HepG2 cells [35]): 129 to 594 nM
